# Values quoted from earlier work, collected in paper PMC6722509, “Design and In Vivo Pharmacokinetic Evaluation of Triamcinolone Acetonide Microcrystals-Loaded PLGA Microsphere for Increased Drug Retention in Knees after Intra-Articular Injection” (Pharmaceutics, 2019).
# Legend:
# [1] = 0.25 mg per knee, rats
smiles,measurement,setting,value
"CC1(C)O[C@@H]2C[C@H]3[C@@H]4CCC5=CC(=O)C=C[C@]5(C)[C@@]4(F)[C@@H](O)C[C@]3(C)[C@]2(C(=O)CO)O1 [TA, triamcinolone acetonide]",Tolerability of IA dose,[1],well tolerated
same,Solubility in ACN,,< 1000 µg/mL
